According to patent publication US20070053831A1, “Methods for binding agents to b-amyloid plaques” (priority 2003, published 2007):
Each block holds one compound with its values, some of them ahead of it.

Experiments:
[1] = target: T1, β-amyloid (1-40) fibrils (Homo sapiens, UniProt P05067); assay: In vitro competition assay with [18F]FDDNP on synthetic β-amyloid (1-40) fibrils (vacuum filtration); type: binding; settings: for dose dependent decrease in the specific binding of [18F]FDDNP: 0.1 pM to 83 μM of nonradioactive agent; for Ki: synthetic β-amyloid (1-40) fibrils, 1 h, PBS pH 7.4, ±SD, read-out: Ki (decrease in the binding of [18F]FDDNP)
T1 construct: β-amyloid (1-40) (Biosource, Camarillo, Calif.) fibrils were prepared; purchased Biosource, Camarillo, Calif; host or cells: synthetic peptide
Protocol: Potential therapeutic agents were evaluated to determine their ability to bind to β-amyloid fibrils. • Amyloid (1-40) fibril formation. β-amyloid (1-40) (Biosource, Camarillo, Calif.) fibrils were prepared. 0.5 mg of β-amyloid (1-40) was dissolved in 1 mL PBS, pH 7.4 and mixed with a magnetic stir bar for 3 days at 37° C. resulting in a visibly cloudy solution. Fibrils were used immediately after their production was confirmed. The production of 13-amyloid fibrils was confirmed by imaging with a Jeol 100CX transmission electron microscope (Jeol, Peabody, Mass.). A 5 μL drop from a fibril solution was allowed to settle for 30 s on a treated copper grid before being washed away with a drop of 2% uranyl acetate solution. Finally, an additional drop of 2% uranyl acetate was added to the grid to negatively stain the fibrils. Fibrils were used immediately after their production was confirmed. Additional tests for fibril formation using Congo red (CR, Sigma) and Thioflavine T (TT, Sigma) were performed, as well. The absence of fibrils in the filtrate in the in vitro competition assays described below was determined by the same tests using CR. In vitro competition assays with [^18[…] against NSAIDs and charge amyloid dyes. Solutions of nonradioactive agents, namely (S)-naproxen (Sigma), (R)-ibuprofen (BIOMOL, Plymouth Meeting, Pa.), (S)-ibuprofen (Sigma), diclofenac (Sigma), CR and TT, were prepared fresh for each radioactive competition assay. APFF glass fiber filters (0.7 μm particle retention; Millipore, Bedford, Mass.) were used in a 1225 sampling manifold (Millipore) that was modified with stainless steel support screens (Millipore) and glass sample chambers. Vacuum filtration involved 0.865 μg/mL of in vitro fibrils of synthetic β-amyloid (1-40) and 37 MBq/mL of [^18[…] incubated for 1 h in PBS, pH 7.4 (1% ethanol) with various concentrations of the nonradioactive agents with the range of 0.1 pM to 83 μM. Each filter was then washed twice with 3 ml of PBS, pH 7.4. The radioactivity retained by the filters was measured and decay-corrected to a common reference time with a Packard Cobra II Auto-Gamma gamma counter (Packard, Meriden, Conn.). […] All competition assays were performed in triplicate. Competition results were analyzed and then Ki values calculated using the Ligand Binding Module for SigmaPlot 2001 (SPSS, Chicago, Ill.).

[2] = system: senile plaques; assay: Digital autoradiography with [18F]FDDNP of AD brain specimens pretreated with nonradioactive agents; type: binding, human
Protocol: Brain specimens from a postmortem-diagnosed definite AD patient were treated. Briefly, formalin-treated, cryoprotected brain specimens were sectioned 70 μm thick coronally mounted on gelatine-coated glass slides, allowed to dry, and were defatted for 40 min in xylene prior to rinsing of the tissue with ethanol. Finally, lipofuscin autofluorescence in some brain specimens was quenched prior to staining using 10 mM CuCl2 in 50 mM ammonium acetate buffer, pH 5. The quenching determined the origin of lipofuscin fluorescence in brain specimens. […] Pretreated and cryosections with no competitor were incubated for 25 min at room temperature with […] of [^18[…] dissolved in 10 mL of 1% ethanol in 0.9% saline (w/v) per cryosection. Following incubation, the sections were optimally washed with water (30 sec); 60% 2-methyl-2-butanol (3 min; Sigma) agitated at 40 RPMs on a Junior Orbit Shaker (Lab-Line Instruments, Melrose Park, Ill.) for differentiation (Bancroft and Stevens, 1990); and then water (30 sec). The sections were dried on a warm hot plate with a steady stream of warm air, exposed to β^+-sensitive phosphor plates for 40 min Fuji Film Medical Systems USA, Stamford, Conn.), and scanned with a FUJI BAS 5000 Phosphorimager (Fuji) at a resolution of 25 μm, as described previously ([…] et al., 2001a). […] FIG. 2Q) in the autoradiograms. Autoradiography was carried out at least in triplicate for each competitor. Statistical analysis of the autoradiograms involved one-way ANOVA with Dunnett's post test using Prism 3.02 (GraphPad, San Diego, Calif.) to compare the differences in the ratio of gray matter-to-white matter (FIG. 2Q) radioactivity of [^18]FDDNP in autoradiograms pretreated with the nonradioactive agents and without pretreatment. Unpaired t-tests were performed to compare the difference of measured [^18[…] radioactivity per area of tissue (Bq/mm^2) in the gray and white matter of each autoradiogram. The same brain specimens used for autoradiography were observed using fluorescence microscopy. Tissues were mounted with Vectashield (Vector, Burlingame, Calif.) and observed with a Nikon Labophot fluorescence microscope (Nikon USA, Melville, N.Y.) with a FITC filter set.

[3] = system: neurofibrillary tangles, amyloid peptides, and diffuse amyloid; assay: In vitro fluorescence labeling of Alzheimer's disease brain specimens with DDNP and [F-18]FDDNP; design: species or system human; settings: all Alzheimer's disease brain specimens
[4] = system: β-amyloid plaques and neurofibrillary tangles; assay: PET with [F-18]FDDNP in patients; type: in vivo, human
Protocol: A patient was placed in a tomograph to obtain brain dynamic PET images. 8.0 mCi of 2-(1.1-dicyanopropen-2-yl)-6-(2-[^18F]-fluoroethyl)-methylamino)-naphthalene ([F18]FDDNP) (specific activity: 5-12 Ci/micromol; mass: ˜1 nanomol), prepared as described in Example 1(f), were injected intravenously into the arm of the patient. Dynamic acquisition data of brain images were recorded simultaneously in forty-seven brain planes for two hours.
Labeling and detection of human β-amyloid plaques and neurofibrillary tangles in vivo were conducted using the following procedures. Ten human subjects, seven Alzheimer's diseased patients (ages 71 to 80) and three control patients (ages 62 to 82) were studied. The patients were positioned supine in an EXACT HR+962 tomograph (Siemens-CTI, Knoxville, Tenn.) with the imaging plane parallel to the orbito-meatal line. Venous catheterization was performed, and then [F-18]FDDNP (5-10 mCi) in human serum albumin (25%) was administered as a bolus via the venous catheter. Sequential emission scans were obtained beginning immediately after [F-18]FDDNP administration using the following scan sequence: six 30 second scans, four 3 minute scans, five 10 minute scans, and three 20 minute scans. Rapid venous blood sampling was performed via the indwelling catheter in two subjects for input function determination and plasma metabolite analysis.
The residence time shown is in reference to that in the pons, an area known to have limited involvement in Alzheimer's disease pathology. The residence time was calculated from the clearance rates of the tracer in affected regions of interest (ROI) and in the pons as: Residence time=[1/clearance rate for affected ROI]−[1/clearance rate for pons] Separate ROIs were defined in entorhinal cortex, hippocampus, lateral temporal cortex and pons. The region with the slowest clearance rate was used as the affected ROI in the calculation of the residence time shown in FIG. 4.

[5] = system: amyloid plaques and tangles; assay: DDNP fluorescence labeling of brain tissue sections in vitro; design: species or system human
Protocol: (§1) A 2.1 mg/mL DDNP stock solution was prepared, which was adjusted to 8 mM in 100% ethanol. A DDNP working solution was prepared by diluting the stock solution with distilled water in a ratio of 1:100-1000 (stock solution:distilled water).
β-amyloid 250 μM (1.25 mg/mL in distilled water) was aggregated at 37° C. for 48 hours. 5 μL were smeared on slides, air-dried and then rehydrated with distilled water. Alternatively, Aβ-positive brain tissue sections were rehydrated with distilled water. DDNP working solution was applied to each slide for 30 minutes at room temperature. The slides were washed three times for five minutes with distilled water. The slides were coverslipped with fluorescent protectant mounding media (Vectashield™, available Vector Labs., Burlingame, Calif.) and observed under a fluorescence microscope with a thioflavin S or FITC filter.

[6] = Storage of DDNP stock solution; type: physicochemical; settings: 8 mM in 100% ethanol, freezer; used at 1/100 to 1/1,000 dilutions
Protocol: as §1

[7] = target: T2, β-amyloid 1-40 injected into rat cortex (Homo sapiens, UniProt P05067); assay: DDNP labeling of β-amyloid injected into rat brain in vivo; settings: rats, FIGS. 2A to 2E
T2 construct: unilateral stereotaxic injection of 3 μg of aggregated β-amyloid 1-40 into rat cortex; host or cells: exogenous peptide fibrils injected into rat brain
Protocol: β-amyloid 250 μM (1.25 mg/mL in distilled water) was aggregated at 37° C. for 48 hours to produce fibrils confirmed by smears. Three rats were anesthetized. 3 μL of a solution of Aβ fibrils (1.25 μg/μL) were injected unilaterally into the cortex of each rat (Bregma 0, AP-4.1 mm, ML+2.0 mm, DV-3.1 mm). Then 3 μL of phosphate buffered saline (PBS) were injected into the contralateral side of each rat brain as a vehicle control. After injection, the needle remained for 5 minutes to prevent reflux, and then the cranial hole was sealed with bone wax. Eight days after β-amyloid injection into the rat brains, the rats were injected with 10 microliters of DDNP working solution (320 micromolar) prepared by diluting DDNP stock solution into 1.5% BSA (bovine serum albumin) in phosphate buffered saline, pH 7.2).
After one hour, the rats were cardiac perfused with PLP fixative (4% paraformaldehyde, 1% lysin in 0.05 M phosphate buffer, pH 7.4). Additional immersion fixation of rat brain was at 4° C. overnight with PLP fixative. The rat brains were washed with PBS, saturated in 10 and 20% sucrose, and snap frozen in chilled isopentane (−70° C.) with liquid nitrogen. The brains were cryostat sectioned at […] around the needle-track and directly coverslipped with glycerol and fluorescence protectant (Vectashield™).

[8] = system: amyloid plaques; settings: cited from earlier work
[9] = AD brain specimens pretreated with 40 μM agent for 60 min
[10] = AD brain specimens pretreated with 100 nM agent for 60 min
[11] = cortex of the brain of an Alzheimer's disease patient, FIG. 1B

T1 sequence (P05067 672-711 limits assumed): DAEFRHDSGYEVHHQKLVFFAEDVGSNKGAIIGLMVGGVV
T2 sequence (P05067 672-711 limits assumed): as above

Ki [1]: 44.4 ± 17.4 µM
specific binding of [18F]FDDNP to regions of gray matter with senile plaques [2, 9]: significantly reduced
SMILES: CC(C)Cc1ccc([C@@H](C)C(=O)O)cc1 [(R)-ibuprofen]

melting point: 168 to 170 °C
SMILES: CN(C)c1ccc2cc(C(/C=C\NCCO)=C(C#N)C#N)ccc2c1

melting point: 256 to 257 °C
SMILES: CN(C)c1ccc2cc(-c3ccnc(N)c3C#N)ccc2c1.O

Ki [1]: 0.0057 ± 0.00131 µM
specific binding of [18F]FDDNP to regions of gray matter with senile plaques [2, 10]: significantly reduced
SMILES: COc1ccc2cc([C@H](C)C(=O)O)ccc2c1 [(S)-naproxen]

specific binding of [18F]FDDNP to regions of gray matter with senile plaques [2, 9]: minimal effect
SMILES: Cc1ccc2c(c1)sc(-c1ccc(N(C)C)cc1)[n+]2C.[Cl-] [TT, Thioflavine T]
dose dependent decrease in the specific binding of [18F]FDDNP [1]: did not exhibit a dose dependent decrease

Ki [1]: 11.3 ± 5.2 µM
specific binding of [18F]FDDNP to regions of gray matter with senile plaques [2, 9]: significantly reduced
SMILES: CC(C)Cc1ccc([C@H](C)C(=O)O)cc1 [(S)-ibuprofen]

melting point: 198 to 200 °C
SMILES: CN(C)c1ccc2cc(-c3ccnc(Cl)c3C#N)ccc2c1

specific binding of [18F]FDDNP to regions of gray matter with senile plaques [2, 9]: minimal effect
SMILES: O=C(O)Cc1ccccc1Nc1c(Cl)cccc1Cl [Diclofenac, diclofenac]
dose dependent decrease in the specific binding of [18F]FDDNP [1]: did not exhibit a dose dependent decrease

Further lines, the compound ahead of its results:

SMILES: Nc1c(/N=N/c2ccc(-c3ccc(/N=N/c4cc(S(=O)(=O)O)c5ccccc5c4N)cc3)cc2)cc(S(=O)(=O)O)c2ccccc12 [CR, Congo red]
dose dependent decrease in the specific binding of [18F]FDDNP [1]: did not exhibit a dose dependent decrease
specific binding of [18F]FDDNP to regions of gray matter with senile plaques [2, 9]: minimal effect

SMILES: CC(=C(C#N)C#N)c1ccc2cc(N(C)CCF)ccc2c1 [FDDNP]
specific binding of [18F]FDDNP to regions of gray matter with senile plaques [2, 10]: significantly reduced

SMILES: CC(=C(C#N)C#N)c1ccc2cc(N(C)CC[18F])ccc2c1 [[F-18]FDDNP]
visualization of neurofibrillary tangles, amyloid peptides, and diffuse amyloid [3]: excellent visualization
estimated residence time (in reference to pons) ([4]; Alzheimer's diseased patients versus control patients, FIG. 4): different from values in control patients
regional clearance from brain ([4]; brain areas known to accumulate β-amyloid plaques and neurofibrillary tangles): slower clearance
crossing of the blood brain barrier ([4]; human, intravenous injection): crosses the blood brain barrier readily in proportion to blood flow

SMILES: CN(C)c1ccc2cc(-c3ccn4ccnc4c3C#N)ccc2c1
melting point: 268 to 269 °C

SMILES: CN(C)/C=C/C(=C(C#N)C#N)c1ccc2cc(N(C)C)ccc2c1
melting point: 213 to 215 °C

SMILES: COc1nccc(-c2ccc3cc(N(C)C)ccc3c2)c1C#N
melting point: 150 to 151 °C

SMILES: CC(=C(C#N)C#N)c1ccc2cc(N(C)C)ccc2c1 [DDNP, 2-(1,1-dicyanopropen-2-yl)-6-dimethylaminonaphthalene]
visualization of neurofibrillary tangles, amyloid peptides, and diffuse amyloid [3]: excellent visualization
labeling of plaques [5, 11]: strong
labeling of tangles [5, 11]: weak
labeling of amyloid deposits in cryostat and paraffin sections of AD brain tissue ([5]; fluorescence microscopy): readily labeled amyloid deposits
melting point: 154.5 to 155 °C
stability of stock solution [6]: can be kept in the freezer for six months and still produce acceptable results
passage of the blood brain barrier [7]: passes the blood brain barrier

SMILES: O=C(O)c1cc(/N=N/c2ccc(-c3ccc(/N=N/c4ccc(O)c(C(=O)O)c4)cc3)cc2)ccc1O [Chrysamine G]
ability to label amyloid plaques in Alzheimer's brain [8]: appears weak

SMILES: CN(C)c1ccc2cc(-c3ccnc(SCCO)c3C#N)ccc2c1
melting point: 210 to 212 °C
